Assay results from patent US20020065279A1, “Arylsulfonic acid salts of pyrimidine-based antiviral” (priority 2000, published 2002).
Where a name gives a salt, the structure may show the parent alone. Read-outs that look alike come from different tables or passages of the source.

Tests used:
[1] = Acid selection: salt formation of compound 1 with acids; format: physicochemical
Excerpt: In order to prepare suitable formulations of the compounds of formula I below, standard salt formation methods were pursued. […] These acids represent most of the pharmaceutical salts used today.

[2] = Thermal stability of salts at 45° C. (HPLC purity); format: physicochemical
[3] = Aqueous solubility of compound 1 free base and salts; format: physicochemical
Excerpt: A variety of pyrimidine-based antiviral compounds have been described in co-pending U.S. Ser. No. 09/249,64 1, filed Feb. 12, 1999 and in PCT application US99/03136. The development of a pyrimidine-based antiviral agent (such as those described hereinbelow) for clinical use required the identification of a salt form with optimal physical and chemical properties. The most critical properties included crystallinity, aqueous solubility, light stability and thermal stability. As noted above, applications U.S. Ser. No. 09/249,641 and PCT US99/03136 describe pyrimidine derivatives both as free bases and as their pharmaceutically acceptable salts. Among the salts listed for this group of compounds exre hydrochloric, hydrobromic, nitric, carbonic, monohydrogencarbonic, phosphoric, monohydrogenphosphoric, dihydrogenphosphoric, sulfuric, monohydrogensulfuric, hydriodic, or phosphorous acids and the like, as well as the salts derived from organic acids like acetic, propionic, isobutyric, oxalic, maleic, malonic, benzoic, succinic, suberic, fumaric, mandelic, phthalic, benzenesulfonic, p-tolylsulfonic, citric, tartaric, miethanesulfonic, and the like. Also included are salts of amino acids such as arginate and the like, and salts of organic acids like glucuronic or galactunoric acids and the like.
The besilate and tosylate salts represent improvement over the free base in solubility as described in Table 2 below. The increase in solubility represents a significant advantage over the free base for formulations that are suitable for therapeutic administration.

[4] = Aqueous stability of salts in deionized water (HPLC, UV 254.4 nm); format: physicochemical
Method: The tosylate salts was evaluated at a concentration of 4.7 mg/mL and the besilate salt was evaluated at a concentration of 3.2 mg/mL. Stability was monitored via HPLC using UV detection at 254.4 nm.

[5] = Light stability of salts (ambient light and window glass filtered sunlight, HPLC purity); format: physicochemical
[6] = pKa of the free base of compound 1
[7] = first printed pKa of the acid; cited from earlier work

Molecule: O=C(O)c1cccc(O)c1 [3-Hydroxybenzoic]
- Result (salt formation with compound 1) ([1]; Solvent EtOAc): No salt formed

Molecule: CC(=O)O [Acetic]
- Result (salt formation with compound 1) ([1]; Solvent Et2O): No salt formed

Molecule: O=C(O)c1ccccc1 [Benzoic]
- Result (salt formation with compound 1) ([1]; Solvent Et2O): No salt formed
- Result (salt formation with compound 1) ([1]; Solvent EtOAc): No salt formed

Molecule: Cc1nc(N2CCOCC2C)nc(-n2ccnc2)c1[N+](=O)[O-] (stereo not drawn) [Besilate Salt, 2-(3S-3-methylmorpholino)-4-(imidazol-1-yl)-6-methyl-5-nitropyrimidine benzenesulfonate]
- purity %, HPLC (thermal stability) ([2]; 8 hours): 100%
- purity %, HPLC (thermal stability) ([2]; 24 hours): 100%
- purity %, HPLC (thermal stability) ([2]; 48 hours): 100%
- purity %, HPLC (thermal stability) ([2]; 72 hours): 100%
- purity %, HPLC (thermal stability) ([2]; 170 hours): 100%
- purity %, HPLC (thermal stability) ([2]; 250 hours): 100%
- purity %, HPLC (thermal stability) ([2]; 1632 hours): 100%
- Aqueous Solubility ([3]; listed as Resilate Salt): 44 mg/mL
- purity %, HPLC (aqueous stability) ([4]; 3.2 mg/mL, 48 hours): 100%
- purity %, HPLC (aqueous stability) ([4]; 3.2 mg/mL, 147 hours): 100%
- purity %, HPLC (aqueous stability) ([4]; 3.2 mg/mL, 171 hours): 97.4%
- purity %, HPLC (aqueous stability) ([4]; 3.2 mg/mL, 201 hours): 91.7%
- purity %, HPLC (aqueous stability) ([4]; 3.2 mg/mL, 216 hours): 91.7%
- purity %, HPLC (aqueous stability) ([4]; 3.2 mg/mL, 1560 hours): 61.4%
- purity %, HPLC (light stability) ([5]; 24 hours): 100%
- purity %, HPLC (light stability) ([5]; 48 hours): 100%
- purity %, HPLC (light stability) ([5]; 216 hours): 97.3%
- purity %, HPLC (light stability) ([5]; 1560 hours): 93.1%

Molecule: O=C(O)CC(O)(CC(=O)O)C(=O)O [Citric]
- Result (salt formation with compound 1) ([1]; Solvent Et2O): No salt formed
- Result (salt formation with compound 1) ([1]; Solvent EtOAc): No salt formed
- Result (salt formation with compound 1) ([1]; Solvent EtOAc/MeOH): No salt formed

Molecule: Cc1nc(N2CCOCC2C)nc(-n2ccnc2)c1[N+](=O)[O-] (stereo not drawn) [Compound 1, 2-(3S-3-methylmorpholino)-4-(imidazol-1-yl)-6-methyl-5-nitropyrimidine]
- pKa [6]: 4.09
- Aqueous Solubility [3]: 1.68 mg/mL

Molecule: O=C(O)[C@@H](O)[C@H](O)C(=O)O [D-Tartaric]
- Result (salt formation with compound 1) ([1]; Solvent EtOAc): No salt formed
- Result (salt formation with compound 1) ([1]; Solvent MeOH): No salt formed

Molecule: O=CO [Formic]
- Result (salt formation with compound 1) ([1]; Solvent EtOH): No salt formed

Molecule: Br [Hydrobromic]
- Result (salt formation with compound 1) ([1]; Solvent EtOH): Decomposition

Molecule: Cl [Hydrochloric]
- Result (salt formation with compound 1) ([1]; Solvent CH3CN): Decomposition
- Result (salt formation with compound 1) ([1]; Solvent CHCl3): Decomposition
- Result (salt formation with compound 1) ([1]; Solvent Et2O): Decomposition
- Result (salt formation with compound 1) ([1]; Solvent EtOAc): Decomposition
- Result (salt formation with compound 1) ([1]; Solvent IPA): Decomposition
- Result (salt formation with compound 1) ([1]; Solvent MeOH): Decomposition

Molecule: O=C(O)/C=C\C(=O)O [Maleic]
- Result (salt formation with compound 1) ([1]; Solvent Et2O): No salt formed
- Result (salt formation with compound 1) ([1]; Solvent EtOAc): No salt formed

Molecule: CS(=O)(=O)O [Methanesulfonic]
- Result (salt formation with compound 1) ([1]; Solvent CH2Cl2): Decomposition
- Result (salt formation with compound 1) ([1]; Solvent Et2O): Decomposition
- Result (salt formation with compound 1) ([1]; Solvent EtOAc): Decomposition
- Result (salt formation with compound 1) ([1]; Solvent EtOAc/CH2Cl2): Decomposition
- Result (salt formation with compound 1) ([1]; Solvent EtOAc/hexanes): Decomposition

Molecule: O=[N+]([O-])O [Nitric]
- Result (salt formation with compound 1) ([1]; Solvent EtOH): Decomposition
- pKa (acid) [7]: −1.4

Molecule: O=C(O)c1ccccc1O [Salicylic]
- Result (salt formation with compound 1) ([1]; Solvent Et2O): No salt formed
- Result (salt formation with compound 1) ([1]; Solvent EtOAc): No salt formed

Molecule: NC(=O)CCC(=O)O [Succinamic]
- Result (salt formation with compound 1) ([1]; Solvent EtOAc): No salt formed
- Result (salt formation with compound 1) ([1]; Solvent EtOAc/MeOH): No salt formed
- pKa (acid) [7]: 4.4

Molecule: O=S(=O)(O)O [Sulfuric]
- Result (salt formation with compound 1) ([1]; Solvent EtOH): Decomposition

Molecule: Cc1ccc(S(=O)(=O)O)cc1 [Toluenesulfonic]
- Result (salt formation with compound 1) ([1]; Solvent CHCl3/hexanes): Yellow crystals
- Result (salt formation with compound 1) ([1]; Solvent EtOAc): Yellow crystals

Molecule: Cc1nc(N2CCOCC2C)nc(-n2ccnc2)c1[N+](=O)[O-] (stereo not drawn) [Tosylate Salt, 2-(3S-3-methylmorphoamino)-4-(imidazol-1-yl)-6-methyl-5-nitropyrimidine p-toluenesulfonate]
- purity %, HPLC (thermal stability) ([2]; 8 hours): 100%
- purity %, HPLC (thermal stability) ([2]; 24 hours): 100%
- purity %, HPLC (thermal stability) ([2]; 48 hours): 100%
- purity %, HPLC (thermal stability) ([2]; 72 hours): 100%
- purity %, HPLC (thermal stability) ([2]; 170 hours): 100%
- purity %, HPLC (thermal stability) ([2]; 250 hours): 100%
- purity %, HPLC (thermal stability) ([2]; 1632 hours): 100%
- Aqueous Solubility [3]: 36 mg/mL
- purity %, HPLC (aqueous stability) ([4]; 4.7 mg/mL, 48 hours): 100%
- purity %, HPLC (aqueous stability) ([4]; 4.7 mg/mL, 147 hours): 100%
- purity %, HPLC (aqueous stability) ([4]; 4.7 mg/mL, 171 hours): 97.3%
- purity %, HPLC (aqueous stability) ([4]; 4.7 mg/mL, 201 hours): 93.1%
- purity %, HPLC (aqueous stability) ([4]; 4.7 mg/mL, 216 hours): 92.8%
- purity %, HPLC (aqueous stability) ([4]; 4.7 mg/mL, 1560 hours): 64.6%
- purity %, HPLC (light stability) ([5]; 24 hours): 100%
- purity %, HPLC (light stability) ([5]; 48 hours): 100%
- purity %, HPLC (light stability) ([5]; 216 hours): 97.6%
- purity %, HPLC (light stability) ([5]; 1560 hours): 86.6%

Molecule: Benzenesulfonic
- Result (salt formation with compound 1) ([1]; Solvent CH2Cl2/hexanes): Yellow crystals
- Result (salt formation with compound 1) ([1]; Solvent CH3CN): Yellow crystals
- Result (salt formation with compound 1) ([1]; Solvent CHCl3/hexanes): Yellow crystals
- Result (salt formation with compound 1) ([1]; Solvent EtOAc/MeOH): Yellow crystals
- Result (salt formation with compound 1) ([1]; Solvent EtOH): Yellow crystals
- Result (salt formation with compound 1) ([1]; Solvent EtOH/hexanes): Yellow crystals
- pKa (acid) [7]: 1.6

Molecule: Fumaric
- Result (salt formation with compound 1) ([1]; Solvent EtOAc/MeOH): No salt formed

Molecule: L-Tartaric
- Result (salt formation with compound 1) ([1]; Solvent Et2O): No salt formed
- Result (salt formation with compound 1) ([1]; Solvent EtOAc): No salt formed
- Result (salt formation with compound 1) ([1]; Solvent EtOH): No salt formed
- Result (salt formation with compound 1) ([1]; Solvent MeOH): No salt formed
